Assay: In vitro release of methylprednisolone acetate into 50 wt % aqueous ethanol
Format: physicochemical
Conditions: unencapsulated, 37° C., 120 cycles/min
Experimental: The in vitro release of methylprednisolone acetate from microparticles into a receiving fluid comprising 50 wt % of aqueous ethanol maintained at 37° C. was measured.
Triplicate samples of 20 mg of microparticles were weighed and each sample was placed in an 8-oz bottle containing 150 mL of 50 wt % aqueous ethanol. […] Next, the bottles were sealed with a thin sheet of Teflon and a screw cap to prevent evaporation. The bottles were then placed in an Eberbach shaker bath oscillating at 120 cycles/min and maintained at 37° C. The amount of drug released from the microparticles as a function of time was measured by determining the absorbance of the aqueous ethanol receiving fluid at 247 nm and by using the following equation based on Beer's Law.
wherein C is the concentration of methylprednisolone acetate in g/ml.

time to complete dissolution: 30 min
SMILES: CC(=O)OCC(=O)[C@@]1(O)CC[C@H]2[C@@H]3C[C@H](C)C4=CC(=O)C=C[C@]4(C)[C@H]3[C@@H](O)C[C@@]21C
